Test [1] relates to Myc-Spir-2. Put plainly: Colocalization with Spir-2 on vesicular structures in HeLa cells. As to conditions: full-length proteins co-expressed. The test is classed as cell-based, Homo sapiens. As to the method:
HeLa cells were seeded on microscope cover glasses and transfected with Myc-epitope-tagged Spir-2 proteins and fluorescently-tagged MyoV and Rab11 proteins as described above. Cells were fixed with paraformaldehyde (3.7% in 1x PBS) for 20 min at 4°C and subsequently permeabilized using 0.2% Triton X-100 (in 1x PBS) for 3.5 min, room temperature. […] Finally, cells were mounted on microscope slides with Mowiol and analyzed with a Leica AF6000LX fluorescence microscope, equipped with a Leica HCX PL APO 63x/1.3 GLYC objective and a Leica DFC350 FX digital camera (1392 × 1040 pixels, 6.45 × 6.45 µm pixel size). 3D stacks were recorded and processed with the Leica deconvolution software module. In case of the MyoVa autoregulation/activation experiments, we quantified the MyoVa expression levels. […] In order to clearly distinguish between vesicular and cytoplasmic MyoVa localization, we imaged either high or low expressing cells and determined the sum of pixel gray values per cell as a measure for the MyoVa expression levels. […] Images were recorded using the Leica LASX software and further processed with Adobe Photoshop and subsequently assembled with Adobe Illustrator.

Test [2] relates to GST-Rab11a-Q70L. Put plainly: GST-pulldown from HEK293 lysates. In kind it is binding. As to conditions: HEK293 lysates over-expressing Myc-Spir-2, Straw-FMN2-FH2-FSI and GFP-MyoVa-FL; N = 2. As to the method:
HEK293 cells were co-transfected with expression vectors encoding Myc-Spir-2-FL, mStrawberry-FMN2-FH2-FSI, eGFP-MyoVa-D-FL and eGFP-MyoVa-D-Q1753R, respectively. 24 hr post transfection, cells were lysed in lysis buffer (25 mM Tris-HCl pH 7.4, 150 mM NaCl, 5 mM MgCl2, 10% (v/v) glycerol, 0.1% (v/v) Nonidet P-40, 1 mM PMSF, protease inhibitor cocktail) and centrifuged at 20,000 x g, 4°C, 20 min to remove insoluble debris. For GST-pulldown assays 65 µg GST-Rab11a-Q70L protein (25 µg GST control) was coupled to GSH-Sepharose 4B beads (1:1 suspension) for 1 hr, 4°C on a rotating wheel. Beads were washed twice with pulldown buffer (25 mM Tris-HCl pH 7.4, 150 mM NaCl, 5 mM MgCl2, 10% (v/v) glycerol, 0.1% (v/v) Nonidet P-40) and subsequently incubated with the cell lysates for 2 hr at 4°C on a rotating wheel. Beads were washed four times with pulldown buffer and bound proteins were eluted with 1x Laemmli buffer and denatured at 95°C for 10 min, then were analyzed by immunoblotting.

Test [3] deals with HeLa cells. Put plainly: Subcellular localization by fluorescence microscopy. In kind it is cell-based. The conditions noted are these: single expression. As to the method:
HeLa cells were seeded on microscope cover glasses and transfected with Myc-epitope-tagged Spir-2 proteins and fluorescently-tagged MyoV and Rab11 proteins as described above. Cells were fixed with paraformaldehyde (3.7% in 1x PBS) for 20 min at 4°C and subsequently permeabilized using 0.2% Triton X-100 (in 1x PBS) for 3.5 min, room temperature. Cells were incubated with anti-c-Myc antibody (9E10, mouse monoclonal, 2 µg/ml, Santa Cruz Biotechnology; RRID: AB_627268) for 1 hr at room temperature and conjugated anti-mouse secondary antibodies (Cy5; from donkey, 3.25 µg/ml, Dianova (RRID: AB_2340820) and TRITC; from donkey, 3.125 µg/ml, Dianova (RRID: AB_2340767)) for 1 hr at room temperature avoiding exposure to light. Finally, cells were mounted on microscope slides with Mowiol and analyzed with a Leica AF6000LX fluorescence microscope, equipped with a Leica HCX PL APO 63x/1.3 GLYC objective and a Leica DFC350 FX digital camera (1392 × 1040 pixels, 6.45 × 6.45 µm pixel size). 3D stacks were recorded and processed with the Leica deconvolution software module. In case of the MyoVa autoregulation/activation experiments, we quantified the MyoVa expression levels. […] In order to clearly distinguish between vesicular and cytoplasmic MyoVa localization, we imaged either high or low expressing cells and determined the sum of pixel gray values per cell as a measure for the MyoVa expression levels. Based on that, we only used cells for the autoregulation analysis having a sum of pixel gray values less than 20 × 10^6 for the expression of GFP-MyoVa-D-FL. Images were recorded using the Leica LASX software and further processed with Adobe Photoshop and subsequently assembled with Adobe Illustrator.

Test [4] has as its target T1, MyoVb-GTD (Homo sapiens, UniProt Q9ULV0).
T1 construct: aa 1456 - 1848 (BamHI / XhoI); His6 (6xHis) with rTEV site (N, cleaved yes); made in house; host or cells: Escherichia coli BL21(DE3) or BL21-CodonPlus-RILP
T1 sequence (Q9ULV0 1456-1848): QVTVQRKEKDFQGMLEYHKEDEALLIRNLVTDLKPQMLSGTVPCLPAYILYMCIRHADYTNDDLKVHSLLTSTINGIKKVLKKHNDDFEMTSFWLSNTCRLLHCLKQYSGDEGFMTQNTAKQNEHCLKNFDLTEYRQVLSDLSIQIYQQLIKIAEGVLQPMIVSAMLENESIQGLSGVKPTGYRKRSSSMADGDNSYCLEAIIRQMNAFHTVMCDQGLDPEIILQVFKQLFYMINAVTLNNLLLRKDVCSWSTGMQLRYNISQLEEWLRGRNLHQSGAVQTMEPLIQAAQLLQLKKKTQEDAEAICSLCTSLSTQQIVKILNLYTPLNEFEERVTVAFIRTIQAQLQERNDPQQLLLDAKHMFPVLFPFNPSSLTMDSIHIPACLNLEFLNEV
Put plainly: Fluorescence anisotropy, fluorescein-labeled Spir-2 peptide. In kind it is binding. The method, then: (§1) Fluorescence anisotropy measurements were performed on a PTI Quanta-Master QM4CW spectrofluorometer (PTI, Lawrenceville, NJ, USA) at 25°C using a 10 mm wide quartz cell. Bandwidths of excitation and emission monochromators were set respectively at 5 and 15 nm. Fluorescence anisotropy, expressed in millianisotropy units, was calculated according to the equation A=IVV−GIVH/IVV+2GIVH
(§2) with A is anisotropy, G = IHV/IHH is a correction factor for wavelength-dependent distortion, and I is the fluorescence intensity component. Anisotropy values were averaged from 30 different acquisitions. The cell was charged with 1 µM of fluorescein labeled Spir-2-401-427 peptide in a final volume of 1 ml in buffer (100 mM Tris-HCl pH 8.0, 150 mM NaCl, 2 mM MgCl2, 2 mM TCEP, 5% (v/v) glycerol) and titrated with MyoVa-GTD or MyoVb-GTD (50 nM–5 µM). The binding isotherms were fitted to obtain the equilibrium dissociation constants Kd and standard errors, by using the Origin 2015 software that implements Levenberg Marquardt iterative minimization algorithms, using the equation y=F0+Fm−F0/2P(P+x+Kd−(P+x+Kd)^2−4Px)
(§3) with y represents the fluorescence anisotropy, x the concentration of MyoV-GTD, F0 the initial anisotropy, Fm the maximum anisotropy, and P the peptide concentration. Experiments were repeated twice with two different protein preparations.

Test [5] has as its target T2, MyoVc-GTD (Homo sapiens, UniProt Q9NQX4).
T2 construct: aa 1350 - 1742 (BamHI / XhoI); His6 (6xHis) with rTEV site (N, cleaved yes); made in house; host or cells: Escherichia coli BL21(DE3) or BL21-CodonPlus-RILP
Put plainly: Microscale thermophoresis, fluorescein-labeled Spir-2 peptide. In kind it is binding. As to conditions: human Spir-2 aa 401–427. As to the method: MST experiments were performed on a Monolith NT.115 system (NanoTemper Technologies, München, Germany) using 5% LED and 30% IR-laser power at 21.5°C. Laser on and off times were set at 30 s and 5 s, respectively. Fluorescein labeled Spir-2 peptide was synthesized by Genscript, the peptide was dissolved in PBS with 0.005% Tween-20 and diluted to 1 μM concentration. A two-fold dilution series was prepared for the MyoVc-GTD in the interaction buffer (50 mM Tris pH 8.0, 250 mM NaCl, 2 mM MgCl2, 2 mM TCEP, 5% (v/v) glycerol) and each dilution point was transferred to the Fluorescein-Spir-2 solution. The final concentrations of MyoVc-GTD ranged from 97 μM to 2.96 nM, the final concentration of the labeled peptide was 500 nM. Samples were filled into premium capillaries (NanoTemper Technologies) for measurements. The experiments were performed with three independent replicates. The affinity was quantified by analyzing the change in normalized fluorescence as a function of the concentration of the titrated peptide using the NTAnalysis software provided by the manufacturer.

Test [6] concerns the target T3, MyoVa-GTD (Homo sapiens, UniProt Q9Y4I1).
T3 construct: aa 1461 - 1853 (BamHI / XhoI); His6 (6xHis) with rTEV site (N, cleaved yes); made in house; host or cells: Escherichia coli BL21(DE3) or BL21-CodonPlus-RILP
Put plainly: Fluorescence anisotropy, fluorescein-labeled Spir-2 peptide. In kind it is binding. The conditions noted are these: 1 µM peptide, MyoVa-GTD 50 nM–5 µM; 100 mM Tris-HCl pH 8.0, 150 mM NaCl, 2 mM MgCl2, 2 mM TCEP, 5% glycerol; 25°C; ± standard error; repeated twice with two protein preparations; read-out: equilibrium dissociation constant (Kd). The method, then: as §1, §2, §3

The target in test [7] is T3, MyoVa-GTD. Put plainly: Surface plasmon resonance, Rab11a captured. The test is classed as binding. As to conditions: MyoVa-GTD 10 nM–5 µM over captured Rab11a-Q70L(GTP) or Rab11-wt(GDP); 50 mM Hepes pH 7.5, 100 mM NaCl, 2 mM MgCl2, 1 mM TCEP; 25°C; steady state; mean ± SEM, N = 3; read-out: dissociation equilibrium constant (Kd). As to the method:
(§4) The assays were carried out at 25°C in buffer (50 mM Hepes pH 7.5, 100 mM NaCl, 2 mM MgCl2, 1 mM TCEP). 200–250 resonance units (RU; 1RU ≈ 1 pg × mm^−2) of Rab11a-Q70L(GTP) or Rab11-wt(GDP) were captured through their His6-tag on the surface of a NTA sensorchip using a Biacore 2000 instrument (GE Healthcare Life Sciences). MyoVa-GTD or MyoVb-GTD (10 nM–5 µM) were then injected over the tethered Rabs for one minute at a flow rate of […]. The surface was regenerated with a 2-min 0.3 M EDTA incubation and a 1-min 0.1% SDS wash. The real-time interaction profiles were double referenced using the Scrubber 2.0 software (BioLogic Software, Campbell, Australia), both the signals from a reference surface (with a non-relevant protein captured on NTA) and from blank experiments using buffer instead of MyoV-GTD were subtracted. The MyoV-GTD concentration-dependence of the steady-state SPR signals was then analyzed to determine the dissociation equilibrium constants (Kd) of the different complexes using the numerical integration algorithm software Biaevaluation 4.1. Each experiment (10 point 2-fold dilution concentration series each) was repeated in triplicate, yielding mean Kd values and standard errors (SEM).

Test [8] has as its target T1, MyoVb-GTD. Put plainly: Surface plasmon resonance, Rab11a captured. The test is classed as binding. The conditions noted are these: MyoVb-GTD 10 nM–5 µM over captured Rab11a-Q70L(GTP) or Rab11-wt(GDP); 50 mM Hepes pH 7.5, 100 mM NaCl, 2 mM MgCl2, 1 mM TCEP; 25°C; steady state; mean ± SEM, N = 3; read-out: dissociation equilibrium constant (Kd). The method, then:
as §4

Peptide text beside a SMILES is read from it. * marks the point of attachment. 5FAM = O=C1OC2(c3ccc(O)cc3Oc3cc(O)ccc32)c2ccc(C(=O)*)cc21; Ahx = NCCCCCC(=O)O

T3 sequence (Q9Y4I1 1463-1855): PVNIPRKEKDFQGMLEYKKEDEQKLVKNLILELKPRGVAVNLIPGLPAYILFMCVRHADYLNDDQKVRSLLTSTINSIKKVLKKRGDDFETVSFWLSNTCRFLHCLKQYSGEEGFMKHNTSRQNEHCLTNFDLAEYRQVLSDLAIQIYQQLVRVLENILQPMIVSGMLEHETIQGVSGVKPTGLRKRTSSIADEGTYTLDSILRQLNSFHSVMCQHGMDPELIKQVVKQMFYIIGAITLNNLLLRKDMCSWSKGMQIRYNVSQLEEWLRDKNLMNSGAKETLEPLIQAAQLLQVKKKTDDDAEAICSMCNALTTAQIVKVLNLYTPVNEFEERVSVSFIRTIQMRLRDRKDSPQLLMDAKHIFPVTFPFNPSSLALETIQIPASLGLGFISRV
T2 sequence (Q9NQX4 1350-1742): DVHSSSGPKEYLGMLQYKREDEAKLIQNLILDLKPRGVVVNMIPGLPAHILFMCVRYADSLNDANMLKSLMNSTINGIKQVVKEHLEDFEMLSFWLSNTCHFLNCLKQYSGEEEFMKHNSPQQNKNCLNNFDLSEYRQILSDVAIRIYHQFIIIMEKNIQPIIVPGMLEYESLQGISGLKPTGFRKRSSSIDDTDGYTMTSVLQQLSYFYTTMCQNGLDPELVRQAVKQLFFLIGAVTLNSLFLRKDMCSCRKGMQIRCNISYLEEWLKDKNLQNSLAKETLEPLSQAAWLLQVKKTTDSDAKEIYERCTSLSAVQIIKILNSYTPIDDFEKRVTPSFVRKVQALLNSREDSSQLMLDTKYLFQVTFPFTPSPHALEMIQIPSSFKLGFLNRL

Consider “GFP-MyoVa-FL: eGFP-tagged full-length MyoVa”, for which, in test [1], the “colocalization with Spir-2 in words” value is “perfect colocalization”. In test [2], the “pulldown by GST-Rab11a-Q70L in words” value is reported as “able to pull GFP-MyoVa-FL from cell lysates”. Besides, the “subcellular localization in words” value in test [3] is on record as “even cytoplasmic distribution”.
On to “QRPRPRVLLKAPTLAEMEEMNTSEEEE [Spir-2-GTBM]”, for which the figures for the “binding affinity in words” value in test [4] (human Spir-2 aa 401–427) and in test [5] were “low micromolar affinity” and “micromolar range affinity”, respectively.
For the molecule `CSCC[C@H](NC(=O)[C@H](CCC(=O)O)NC(=O)[C@H](C)NC(=O)[C@H](CC(C)C)NC(=O)[C@@H](NC(=O)[C@@H]1CCCN1C(=O)[C@H](C)NC(=O)[C@H](CCCCN)NC(=O)[C@H](CC(C)C)NC(=O)[C@H](CC(C)C)NC(=O)[C@@H](NC(=O)[C@H](CCCNC(=N)N)NC(=O)[C@@H]1CCCN1C(=O)[C@H](CCCNC(=N)N)NC(=O)[C@@H]1CCCN1C(=O)[C@H](CCCNC(=N)N)NC(=O)[C@H](CCC(N)=O)NC(=O)CCCCCNC(=O)c1ccc2c(c1)C(=O)OC21c2ccc(O)cc2Oc2cc(O)ccc21)C(C)C)[C@@H](C)O)C(=O)N[C@@H](CCC(=O)O)C(=O)N[C@@H](CCC(=O)O)C(=O)N[C@@H](CCSC)C(=O)N[C@@H](CC(N)=O)C(=O)N[C@H](C(=O)N[C@@H](CO)C(=O)N[C@@H](CCC(=O)O)C(=O)N[C@@H](CCC(=O)O)C(=O)N[C@@H](CCC(=O)O)C(=O)N[C@@H](CCC(=O)O)C(=O)O)[C@@H](C)O` [Fluorescein-Spir-2-GTBM] ({5FAM-Ahx}-QRPRPRVLLKAPTLAEMEEMNTSEEEE-OH), the Kd turned out to be 900 ± 110 nM in test [6] and 2000 ± 70 nM in test [4] (1 µM peptide, MyoVb-GTD 50 nM–5 µM, 100 mM Tris-HCl pH 8.0, 150 mM NaCl, 2 mM MgCl2, 2 mM TCEP, 5% glycerol, 25°C, ± standard error, repeated twice with two protein preparations, read-out: equilibrium dissociation constant (Kd)).

B1: Rab11GTP: Rab11a-Q70L(GTP) captured through its His6-tag (protein, UniProt P62491 2-213, looked up, variant Q70L)
Ras-related protein Rab-11A: GTRDDEYDYLFKVVLIGDSGVGKSNLLSRFTRNEFNLESKSTIGVEFATRSIQVDGKTIKAQIWDTAGLERYRAITSAYYRGAVGALLVYDIAKHLTYENVERWLKELRDHADSNIVIMLVGNKSDLRHLRAVPTDEARAFAEKNGLSFIETSALDSTNVEAAFQTILTEIYRIVSQKQMSDRRENDMSPSNNVVPIHVPPTTENKPKVQCC
modifications: His6 tag; GTP-bound
As to B1, the Kd turned out to be 203 ± 42 nM in test [7] and 1370 ± 240 nM in test [8].

Source of the values: article PMC5021521, “Coordinated recruitment of Spir actin nucleators and myosin V motors to Rab11 vesicle membranes” (eLife, 2016).
